The conditions of series [1]: amide bond.
The conditions of series [2]: amide bond, 18-membered ring.
For series [3] the following is noted: the molecule shown is the open-chain precursor; amide bond; 18-membered ring.
For series [4] the following is noted: amide bond, 18-membered ring. This is another data set of the same source.
[5] abbreviates: the molecule shown is the open-chain precursor.

The values that follow come from patent publication US20190270778A1, “Cyclic Peptides As C5a Receptor Antagonists” (priority 2016, published 2019).

Where two headings read alike, the source gives them in different places.

Consider `CCc1ccc2c(C[C@@H]3NC(=O)[C@@H](C[C@H]4CC[C@@H](O)CC4)NC(=O)[C@@H]4C[C@@H](OC(C)(C)C)CN4C(=O)[C@@H](NC(=O)[C@H](Cc4ccccc4)N(CC(=O)OC(C)(C)C)C(=O)OC(C)(C)C)CCCNC(=O)[C@H](CCCNC(=N)NS(=O)(=O)c4c(C)c(C)c5c(c4C)CC(C)(C)O5)NC3=O)cn(C(=O)OC(C)(C)C)c2c1`, for which the ring closure, yield of all isomers in series [1] (from CCc1ccc2c(C[C@H](NC(=O)[C@@H](C[C@H]3CC[C@@H](O)CC3)NC(=O)[C@@H]3C[C@@H](OC(C)(C)C)CN3)C(=O)N[C@@H](CCCNC(=N)NS(=O)(=O)c3c(C)c(C)c4c(c3C)CC(C)(C)O4)C(=O)NCCC[C@H](NC(=O)[C@H](Cc3ccccc3)N(CC(=O)OC(C)(C)C)C(=O)OC(C)(C)C)C(=O)O)cn(C(=O)OC(C)(C)C)c2c1) is 42%.

The compound `Cc1c(C)c(S(=O)(=O)NC(=N)NCCC[C@@H]2NC(=O)[C@H](Cc3c[nH]c4ccccc34)NC(=O)[C@@H](C[C@H]3CC[C@@H](O)CC3)NC(=O)[C@@H]3C[C@H](NC(=O)OC(C)(C)C)CN3C(=O)[C@@H](NC(=O)[C@H](Cc3ccccc3)N(CC(=O)OC(C)(C)C)C(=O)OC(C)(C)C)CCCNC2=O)c(C)c2c1OC(C)(C)C2` had a ring closure, yield of all isomers in series [1] (from Cc1c(C)c(S(=O)(=O)NC(=N)NCCC[C@H](NC(=O)[C@H](Cc2c[nH]c3ccccc23)NC(=O)[C@@H](C[C@H]2CC[C@@H](O)CC2)NC(=O)[C@@H]2C[C@H](NC(=O)OC(C)(C)C)CN2)C(=O)NCCC[C@H](NC(=O)[C@H](Cc2ccccc2)N(CC(=O)OC(C)(C)C)C(=O)OC(C)(C)C)C(=O)O)c(C)c2c1OC(C)(C)C2) of 100%. Take `Cc1c(C)c(S(=O)(=O)NC(=N)NCCC[C@@H]2NC(=O)[C@H](Cc3cn(C(=O)OC(C)(C)C)c4ccccc34)NC(=O)[C@@H](C[C@H]3CC[C@@H](O)CC3)NC(=O)[C@@H]3C[C@@H](OC(C)(C)C)CN3C(=O)[C@@H](NC(=O)OC(C)(C)C)CCCNC2=O)c(C)c2c1OC(C)(C)C2`: the ring closure, yield of all isomers in series [1] (from Cc1c(C)c(S(=O)(=O)NC(=N)NCCC[C@H](NC(=O)[C@H](Cc2cn(C(=O)OC(C)(C)C)c3ccccc23)NC(=O)[C@@H](C[C@H]2CC[C@@H](O)CC2)NC(=O)[C@@H]2C[C@@H](OC(C)(C)C)CN2)C(=O)NCCC[C@H](NC(=O)OC(C)(C)C)C(=O)O)c(C)c2c1OC(C)(C)C2, HATU, THF, 13.1 mM, 25.0 °C, 0.25 h) stood at 95.3%. Consider `Cc1c(C)c(S(=O)(=O)NC(=N)NCCC[C@@H]2NC(=O)[C@H](Cc3cn(C(=O)OC(C)(C)C)c4ccccc34)NC(=O)[C@@H](C[C@H]3CC[C@@H](O)CC3)NC(=O)[C@@H]3C[C@@H](OC(C)(C)C)CN3C(=O)[C@@H](NC(=O)[C@H](Cc3ccccc3)N(CC(=O)OC(C)(C)C)C(=O)OC(C)(C)C)CCCNC2=O)c(C)c2c1OC(C)(C)C2`, for which the ring closure, yield of all isomers in series [1] (from Cc1c(C)c(S(=O)(=O)NC(=N)NCCC[C@H](NC(=O)[C@H](Cc2cn(C(=O)OC(C)(C)C)c3ccccc23)NC(=O)[C@@H](C[C@H]2CC[C@@H](O)CC2)NC(=O)[C@@H]2C[C@@H](OC(C)(C)C)CN2)C(=O)NCCC[C@H](NC(=O)[C@H](Cc2ccccc2)N(CC(=O)OC(C)(C)C)C(=O)OC(C)(C)C)C(=O)O)c(C)c2c1OC(C)(C)C2, HATU, THF, 14.1 mM, 25.0 °C, 0.5 h) was 87%. `Cc1c(C)c(S(=O)(=O)NC(=N)NCCC[C@@H]2NC(=O)[C@H](Cc3cn(C(=O)OC(C)(C)C)c4ccccc34)NC(=O)[C@@H](C[C@H]3CC[C@@H](O)CC3)NC(=O)[C@@H]3C[C@@H](OCC(=O)OC(C)(C)C)CN3C(=O)[C@@H](NC(=O)[C@H](Cc3ccccc3)N(CC(=O)OC(C)(C)C)C(=O)OC(C)(C)C)CCCNC2=O)c(C)c2c1OC(C)(C)C2` came in with a ring closure, yield of all isomers in series [1] (from Cc1c(C)c(S(=O)(=O)NC(=N)NCCC[C@H](NC(=O)[C@H](Cc2cn(C(=O)OC(C)(C)C)c3ccccc23)NC(=O)[C@@H](C[C@H]2CC[C@@H](O)CC2)NC(=O)[C@@H]2C[C@@H](OCC(=O)OC(C)(C)C)CN2)C(=O)NCCC[C@H](NC(=O)[C@H](Cc2ccccc2)N(CC(=O)OC(C)(C)C)C(=O)OC(C)(C)C)C(=O)O)c(C)c2c1OC(C)(C)C2) of 83%. Regarding `Cc1c(C)c(S(=O)(=O)NC(=N)NCCC[C@@H]2NC(=O)[C@H](Cc3cn(C(=O)OC(C)(C)C)c4ncccc34)NC(=O)[C@@H](C[C@H]3CC[C@@H](O)CC3)NC(=O)[C@@H]3C[C@@H](OC(C)(C)C)CN3C(=O)[C@@H](NC(=O)[C@H](Cc3ccccc3)N(CC(=O)OC(C)(C)C)C(=O)OC(C)(C)C)CCCNC2=O)c(C)c2c1OC(C)(C)C2`, the ring closure, yield of all isomers in series [1] (from Cc1c(C)c(S(=O)(=O)NC(=N)NCCC[C@H](NC(=O)[C@H](Cc2cn(C(=O)OC(C)(C)C)c3ncccc23)NC(=O)[C@@H](C[C@H]2CC[C@@H](O)CC2)NC(=O)[C@@H]2C[C@@H](OC(C)(C)C)CN2)C(=O)NCCC[C@H](NC(=O)[C@H](Cc2ccccc2)N(CC(=O)OC(C)(C)C)C(=O)OC(C)(C)C)C(=O)O)c(C)c2c1OC(C)(C)C2) worked out at 93.4%. “((31R,6S,9S,15S,19R,20aS)-6-((1H-indol-3-yl)methyl)-15-((S)-2-((carboxymethyl)amino)-3-phenylpropanamido)-9-(3-guanidinopropyl)-3-(((1s,4S)-4-hydroxycyclohexyl)methyl)-1,4,7,10,16-pentaoxoicosahydropyrrolo[1,2-a][1,4,7,10,13]pentaazacyclooctadecin-19-yl)glycine” gave a ring closure, yield after HPLC in series [2] (with chain assembly) of 19.4%.

“((S)-1-(((3R,6S,9S,15S,19R,20aS)-6-((1H-indol-3-yl)methyl)-19-acetamido-9-(3-guanidinopropyl)-3-(((1s,4S)-4-hydroxycyclohexyl)methyl)-1,4,7,10,16-pentaoxoicosahydropyrrolo[1,2-a][1,4,7,10,13]pentaazacyclooctadecin-15-yl)amino)-1-oxo-3-phenylpropan-2-yl)glycine”: in series [2] (2 steps), the ring closure, yield after HPLC came to 20%.

Consider “((S)-1-(((3R,6S,9S,15S,19R,20aS)-6-((1H-indol-3-yl)methyl)-19-amino-9-(3-guanidinopropyl)-3-(((1s,4S)-4-hydroxycyclohexyl)methyl)-1,4,7,10,16-pentaoxoicosahydropyrrolo[1,2-a][1,4,7,10,13]pentaazacyclooctadecin-15-yl)amino)-1-oxo-3-phenylpropan-2-yl)glycine”, for which the ring closure, yield after HPLC in series [2] (2 steps) worked out at 6.6%. On the same count and under the same terms, the value for “((S)-1-(((3R,6S,9S,15S,19R,20aS)-9-(3-guanidinopropyl)-19-hydroxy-3-(((1s,4S)-4-hydroxycyclohexyl)methyl)-6-((5-methoxy-1H-indol-3-yl)methyl)-1,4,7,10,16-pentaoxoicosahydropyrrolo[1,2-a][1,4,7,10,13]pentaazacyclooctadecin-15-yl)amino)-1-oxo-3-phenylpropan-2-yl)glycine” was 6%. For the compound “((S)-1-(((3R,6S,9S,15S,19R,20aS)-9-(3-guanidinopropyl)-19-hydroxy-3-(((1s,4S)-4-hydroxycyclohexyl)methyl)-6-((6-methoxy-1H-indol-3-yl)methyl)-1,4,7,10,16-pentaoxoicosahydropyrrolo[1,2-a][1,4,7,10,13]pentaazacyclooctadecin-15-yl)amino)-1-oxo-3-phenylpropan-2-yl)glycine”, the ring closure, yield after HPLC in series [2] (with chain assembly) is 2.3%. In series [2] (2 steps), “((S)-1-(((3R,6S,9S,15S,19S,20aS)-6-((1H-indol-3-yl)methyl)-19-acetamido-9-(3-guanidinopropyl)-3-(((1s,4S)-4-hydroxycyclohexyl)methyl)-1,4,7,10,16-pentaoxoicosahydropyrrolo[1,2-a][1,4,7,10,13]pentaazacyclooctadecin-15-yl)amino)-1-oxo-3-phenylpropan-2-yl)glycine” yielded a ring closure, yield after HPLC of 30%. In series [2] (2 steps), “((S)-1-(((31R,6S,9S,15S,19R,20aS)-6-((1H-indazol-3-yl)methyl)-9-(3-guanidinopropyl)-19-hydroxy-3-(((1s,4S)-4-hydroxycyclohexyl)methyl)-1,4,7,10,16-pentaoxoicosahydropyrrolo[1,2-a][1,4,7,10,13]pentaazacyclooctadecin-15-yl)amino)-1-oxo-3-phenylpropan-2-yl)glycine” registered a ring closure, yield after HPLC of 35%.

In series [3], “H-Hyp(tBu)-dAla(cis-4-hydroxycyclohexyl)-Trp(Boc,6-Et)-Arg(Pbf)-(Nδ)Orn(Nα-[Boc-N(CH2CO2tBu)-Phe])-OH” yielded a ring closure, isolated yield of 42%. On to “H-Pro((4S)-N(Boc)CH2CO2tBu)-dAla(3-(cis-4-hydroxycyclohexyl))-Trp(Boc)-Arg(Pbf)-Orn(Nα-[Boc-N(CH2CO2tBu)-Phe]; chain through Nδ)-OH”, for which the ring closure, crude yield in series [4] (setting [5]) is 100%. As to “H-Pro((4S)-NHBoc)-dAla(3-(cis-4-hydroxycyclohexyl))-Trp(Boc)-Arg(Pbf)-Orn(Nα-[Boc-N(CH2CO2tBu)-Phe]; chain through Nδ)-OH”, the ring closure, crude yield in series [4] (the molecule shown is the open-chain precursor, HATU/NMM, THF/DMF) is 100%. On to “H-Pro-dAla(3-(cis-4-hydroxycyclohexyl))-Ala(3-(1-Boc-1H-pyrrolo[2,3-b]pyridin-3-yl))-Arg(Pbf)-Orn(Nα-[Boc-N(CH2CO2tBu)-Phe]; chain through Nδ)-OH”, for which the ring closure, crude yield in series [4] (setting [5]) was 100%. Compound “tert-butyl-3-(((3R,6S,9S,15S,19R,20aS)-19-(tert-butoxy)-15-((tert-butoxycarbonyl)amino)-3-(((1s,4S)-4-hydroxycyclohexyl)methyl)-1,4,7,10,16-pentaoxo-9-(3-(3-((2,2,4,6,7-pentamethyl-2,3-dihydrobenzofuran-5-yl)sulfonyl)guanidino)propyl)icosahydropyrrolo[1,2-a][1,4,7,10,13]pentaazacyclooctadecin-6-yl)methyl)-1H-indole-1-carboxylate” had a ring closure, crude yield in series [4] (HATU/NMM, THF/DMF 10:1, 13.1 mM) of 95.3%.
